The source of these data is patent publication US11999746B2, “Compounds” (GlaxoSmithKline Intellectual Property Development Limited, priority 2014, dated 2024).

In test [1] the target is T1, recombinant human Lp-PLA2 (Homo sapiens, UniProt Q13093).
T1 sequence (Q13093 22-441): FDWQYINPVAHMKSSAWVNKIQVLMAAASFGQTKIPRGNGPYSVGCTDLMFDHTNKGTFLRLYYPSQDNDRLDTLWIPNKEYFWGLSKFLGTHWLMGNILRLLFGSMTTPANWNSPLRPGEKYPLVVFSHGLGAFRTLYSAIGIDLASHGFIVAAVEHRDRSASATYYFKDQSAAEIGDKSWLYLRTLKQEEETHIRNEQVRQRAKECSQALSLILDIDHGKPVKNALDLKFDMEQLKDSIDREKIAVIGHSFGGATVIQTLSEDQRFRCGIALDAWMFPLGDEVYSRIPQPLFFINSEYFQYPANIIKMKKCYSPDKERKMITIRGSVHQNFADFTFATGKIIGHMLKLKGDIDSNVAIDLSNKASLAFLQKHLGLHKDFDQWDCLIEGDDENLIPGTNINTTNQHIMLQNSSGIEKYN
Nature of the test: (1a) PED6 assay, recombinant human Lp-PLA2 (rhLp-PLA2). Format: biochemical. The settings on record: Examples 1-167 and 413-430 were tested here, one experiment or average of multiple experiments, read-out: rhLp-PLA2 (pIC50) (converted). In a few lines:
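PED6 (2 μM final after 1:1 addition of 4 μM stock) cleavage by rhLp-PLA2 (4 nM working solution) in 50 mM HEPES pH 7.4, 150 mM NaCl, 1 mM CHAPS; compounds preincubated with enzyme 30 minutes, reaction 20 min at room temperature. Fluorescence at ex 480/em 540; pIC50 from curve fit.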

The target in a further test is T2, Lp-PLA2 in human plasma (Homo sapiens, UniProt Q13093).
T2 construct: from tissue; host or cells: pooled human plasma
T2 sequence (Q13093 22-441): T1 sequence (Q13093 22-441)
As to the kind of experiment: (3a) Lp-PLA2 human plasma Thio-PAF assay. Format: biochemical. The settings on record: (3a) Thio-PAF assay, pooled human plasma; Examples 1-265 and 413-430 were tested here; read-out: pIC50 in the Lp-PLA2 human plasma assay (converted). In a few lines: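 Pooled human plasma preincubated 30 min with serially diluted compound, then given 2-thio-PAF substrate with CPM and NEM in 50 mM HEPES pH 7.4, 150 mM NaCl, 1 mM CHAPS. Reaction quenched with TFA after 2 min; CPM thiol-adduct fluorescence read at ex 380/em 485 after 40 min; pIC50 reported.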

As to `O=c1nc(OCc2ccc(Oc3ccc(F)c(C(F)(F)F)c3)nc2)cc2n1C[C@@H]1CCCN21` [Example E84, (S)-3-((6-(4-fluoro-3-(trifluoromethyl)phenoxy)pyridin-3-yl)methoxy)-7,8,8a,9-tetrahydro pyrrolo[1′,2′:3,4]imidazo[1,2-c]pyrimidin-1(6H)-one], the values for the IC50 (in test [1]; at Lp-PLA2 in human plasma) were not above 100 nM and not above 10000 nM, respectively.
Taken in the same sequence, the figures for `O=c1nc(OCc2cc(F)c(Oc3ccc(C(F)(F)F)nc3)c(F)c2)cc2n1C[C@@H]1CCCN21` [Example E80, (S)-3-((3,5-difluoro-4-((6-(trifluoromethyl)pyridin-3-yl)oxy)benzyl)oxy)-7,8,8a,9-tetrahydro pyrrolo[1′,2′:3,4]imidazo[1,2-c]pyrimidin-1(6H)-one] were not above 100 nM and not above 10000 nM.
For `Cc1cc(COc2cc3n(c(=O)n2)CC2CCCCN32)cc(F)c1F` (stereo not shown) [Example E14, 3-((3,4-Difluoro-5-methylbenzyl)oxy)-6,7,8,9,9a,10-hexahydro-1H pyrido[1′,2′:3,4]imidazo-[1,2-c]pyrimidin-1-one] the same measures were not above 100 nM and not above 10000 nM.
For `N#Cc1cc(COc2cc3n(c(=O)n2)CC2CCCCN32)ccc1Oc1ccc(C(F)(F)F)cc1` (stereo not shown) [Example E23, 5-(((1-Oxo-6,7,8,9,9a,10-hexahydro-1H-pyrido[1′,2′:3,4]imidazo[1,2-c]pyrimidin-3-yl)oxy)methyl)-2-(4-(trifluoromethyl)phenoxy)benzonitrile] the same measures were not above 1 nM and not above 100 nM.
Take `CN1c2cc(OCc3ccc(F)cc3F)nc(=O)n2CC12CCCC2` [Example 419, 7′4(2,4-difluorobenzyhoxy)-1-methyl-1H-spiro[cyclopentane-1,2′-imidazo[1,2-c]pyrimidin]-5′(3′H)-one]: the IC50 was not above 100 nM in test [1] and not above 10000 nM on Lp-PLA2 in human plasma.
As to `O=c1nc(OCc2ccc(Oc3cnc(C(F)(F)F)nc3)c(F)c2)cc2n1CC1CCCCN21` (stereo not shown) [Example E46, 3-((3-Fluoro-4-((2-(trifluoromethyl)pyrimidin-5-yl)oxy)benzyl)oxy)-6,7,8,9,9a,10-hexahydro-1H-pyrido[1′,2′:3,4]imidazo[1,2-c]pyrimidin-1-one], the results for the IC50 (in test [1]; at Lp-PLA2 in human plasma) were not above 1 nM and not above 100 nM, respectively.
As to `O=c1nc(OCc2ccc(F)c(F)c2)cc2n1C[C@@H]1CCCCN21` [Example E31, (S)-3-((3,4-Difluorobenzyl)oxy)-6,7,8,9,9a,10-hexahydro-1H-pyrido[1′,2′:3,4]imidazo[1,2-c]pyrimidin-1-one], the IC50 is not above 100 nM in test [1] and not above 10000 nM at Lp-PLA2 in human plasma.
For `O=c1nc(OCc2cc(F)c(Oc3ccnc(C(F)(F)F)c3)c(F)c2)cc2n1CC1OCCN21` (single isomer, unassigned) [Example E165, 6-((3,5-difluoro-4-((2-(trifluoromethyl)pyridin-4-yl)oxy)benzyl)oxy)-10,10a-dihydro-2H-oxazolo[3′,2′:3,4]imidazo[1,2-c]pyrimidin-8(3H)-one] the same measures were not above 100 nM and not above 100 nM.
For `Cc1cc(Oc2c(F)cc(COc3cc4n(c(=O)n3)C[C@H]3CCCN43)cc2F)ccn1` [Example E106, (R)-3-((3,5-difluoro-4-((2-methylpyridin-4-yl)oxy)benzyl)oxy)-7,8,8a,9-tetrahydro pyrrolo[1′,2′:3,4]imidazo[1,2-c]pyrimidin-1(6H)-one] the same measures were not above 100 nM and not above 10000 nM.
Taken in the same sequence, the figures for `CN1c2cc(OCc3ccc(F)cc3F)nc(=O)n2CC12CCCCC2` [Example 427, 7′4(2,4-difluorobenzyhoxy)-1-methyl-1H-spiro[cyclohexane-1,2′-imidazo[1,2-c]pyrimidin]-5′(3′H)-one] were not above 100 nM and not above 10000 nM.
Regarding `O=c1nc(OCc2cccc(F)c2F)cc2n1C[C@H]1CCCCN21` [Example E56, (R)-3-((2,3-Difluorobenzyl)oxy)-6,7,8,9,9a,10-hexahydro-1H-pyrido[1′,2′:3,4]imidazo[1,2-c] pyrimidin-1-one], the values for the IC50 (in test [1]; on Lp-PLA2 in human plasma) were not above 100 nM and not above 10000 nM, respectively.
For `CCCn1cc(Oc2c(F)cc(COc3cc4n(c(=O)n3)C[C@@H]3COCN43)cc2F)cn1` [Example E156, (R)-6-((3,5-difluoro-4-((1-propyl-1H-pyrazol-4-yl)oxy)benzyl)oxy)-10,10a-dihydro-1H-oxazolo[3′,4′:3,4]imidazo[1,2-c]pyrimidin-8(3H)-one] the same measures were not above 100 nM and not above 10000 nM.
Taken in the same sequence, the figures for `O=c1nc(OCc2ccc(Oc3ccc(C(F)(F)F)nc3)c(F)c2)cc2n1CC1CCCCN21` (stereo not shown) [Example E22, 3-((3-Fluoro-4-((6-(trifluoromethyl)pyridin-3-yl)oxy)benzyl)oxy)-6,7,8,9,9a,10-hexahydro-1H-pyrido[1′,2′:3,4]imidazo[1,2-c]pyrimidin-1-one] were not above 1 nM and not above 10000 nM.
Taken in the same sequence, the figures for `O=c1nc(OCc2cc(F)c(Oc3cnc(C(F)(F)F)nc3)c(F)c2)cc2n1CC1CCCN21` (stereo not shown) [Example E90, 3-((3,5-Difluoro-4-((2-(trifluoromethyl)pyrimidin-5-yl)oxy)benzyl)oxy)-7,8,8a,9-tetrahydro pyrrolo[1′,2′:3,4]imidazo[1,2-c]pyrimidin-1(6H)-one] were not above 1 nM and not above 100 nM.
On to `CN1c2cc(OCc3cccc(F)c3F)nc(=O)n2CC12CCC2` [Example 420, 7′4(2,3-difluorobenzyhoxy)-1-methyl-1H-spiro[cyclobutane-1,2′-imidazo[1,2-c]pyrimidin]-5′(3′H)-one], for which the IC50 in test [1] was not above 100 nM; at Lp-PLA2 in human plasma it was not above 10000 nM.
Taken in the same sequence, the figures for `O=c1nc(OCc2cc(F)c(OC3CCC(F)(F)C3)c(F)c2)cc2n1C[C@@H]1CCCN21` (stereo partly drawn) [Example E95, (S)-3-((4-((3,3-difluorocyclopentyl)oxy)-3,5-difluorobenzyl)oxy)-7,8,8a,9-tetrahydropyrrolo[1′,2′:3,4]imidazo[1,2-c]pyrimidin-1(6H)-one] were not above 100 nM and not above 10000 nM.
Taken in the same sequence, the figures for `O=c1nc(OCc2cc(F)c(Oc3cnc(C(F)(F)F)nc3)c(F)c2)cc2n1C[C@@H]1CCCN21` [Example E91, (S)-3-((3,5-difluoro-4-((2-(trifluoromethyl)pyrimidin-5-yl)oxy)benzyl)oxy)-7,8,8a,9-tetra hydropyrrolo[1′,2′:3,4]imidazo[1,2-c]pyrimidin-1(6H)-one] were not above 1 nM and not above 100 nM.
Taken in the same sequence, the figures for `O=c1nc(OCc2ccc(Oc3ccc(C(F)(F)F)nc3)c(F)c2)cc2n1CC1CCCCN21` (stereo not shown) [Example E38, 3-((3-Fluoro-4-((6-(trifluoromethyl)pyridin-3-yl)oxy)benzyl)oxy)-6,7,8,9,9a,10-hexahydro-1H-pyrido[1′,2′:3,4]imidazo[1,2-c]pyrimidin-1-one] were not above 1 nM and not above 100 nM.
For `O=c1nc(OCc2cc(F)c(F)c(F)c2)cc2n1CC1CCCN21` (stereo not shown) [Example E89, 3-((3,4,5-Trifluorobenzyl)oxy)-7,8,8a,9-tetrahydropyrrolo[1′,2′:3,4]imidazo[1,2-c] pyrimidin-1(6H)-one], the IC50 in test [1] is not above 100 nM; on Lp-PLA2 in human plasma it was not above 10000 nM.
For `Cn1cc(Oc2c(F)cc(COc3cc4n(c(=O)n3)C[C@@H]3COCN43)cc2F)cn1` [Example E144, (R)-6-((3,5-difluoro-4-((1-methyl-1H-pyrazol-4-yl)oxy)benzyl)oxy)-10,10a-dihydro-1H-oxazolo[3′,4′:3,4]imidazo[1,2-c]pyrimidin-8(3H)-one] the same measures were not above 100 nM and not above 10000 nM.
Taken in the same sequence, the figures for `Cc1ncc(Oc2c(F)cc(COc3cc4n(c(=O)n3)C[C@@H]3COCN43)cc2F)cn1` [Example E159, (R)-6-((3,5-difluoro-4-((2-methylpyrimidin-5-yl)oxy)benzyl)oxy)-10,10a-dihydro-1H-oxazolo[3′,4′:3,4]imidazo[1,2-c]pyrimidin-8(3H)-one] were not above 100 nM and not above 10000 nM.
Taken in the same sequence, the figures for `Cc1ncc(Oc2c(F)cc(COc3cc4n(c(=O)n3)C[C@H]3COCN43)cc2F)cn1` [Example E152, (S)-6-((3,5-difluoro-4-((2-methylpyrimidin-5-yl)oxy)benzyl)oxy)-10,10a-dihydro-1H-oxazolo[3′,4′:3,4]imidazo[1,2-c]pyrimidin-8(3H)-one] were not above 100 nM and not above 100 nM.
In the case of `Cc1cc(Oc2c(F)cc(COc3cc4n(c(=O)n3)C[C@@H]3COCCN43)cc2F)ccn1` [Example E117, (R)-7-((3,5-difluoro-4-((2-methylpyridin-4-yl)oxy)benzyl)oxy)-3,4,11,11atetrahydropyrimido[6′,1′:2,3]imidazo[5,1-c][1,4]oxazin-9(1H)-one], the IC50 (in test [1]; at Lp-PLA2 in human plasma) was not above 100 nM in each case.
